Assays:
Assay in all cases: cells
CW-2 = assay type: functional, cell-based, Homo sapiens; conditions: Homo sapiens, CW-2;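 also: growth inhibition of CW-2 cells, read out by a cell viability assay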
Description: SANGER: Inhibition of human CW-2 cell growth in a cell viability assay.

D-336MG = assay type: functional, cell-based, Homo sapiens; conditions: Homo sapiens, D-336MG
Description: SANGER: Inhibition of human D-336MG cell growth in a cell viability assay.

DOHH-2 = assay type: functional, cell-based; conditions: Homo sapiens;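 also: growth inhibition of human DOHH-2 cells, read out with a cell viability assay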
Description: SANGER: Inhibition of human DOHH-2 cell growth in a cell viability assay.

DOK = assay type: functional, cell-based, Homo sapiens; conditions: Homo sapiens, DOK;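 also: cell viability assay read-out, values reflect inhibition of cell growth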
Description: SANGER: Inhibition of human DOK cell growth in a cell viability assay.

EM-2 = assay type: functional, cell-based; conditions: Homo sapiens;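 also: growth inhibition of EM-2 cells, read out with a cell viability assay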
Description: SANGER: Inhibition of human EM-2 cell growth in a cell viability assay.

EW-3 = assay type: functional, cell-based; conditions: Homo sapiens;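 also: cell viability assay read-out, IC50 reflects inhibition of growth of the EW-3 cells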
Description: SANGER: Inhibition of human EW-3 cell growth in a cell viability assay.

FaDu = assay type: functional, cell-based, Homo sapiens; conditions: Homo sapiens, FaDu;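 also: cell viability readout of growth inhibition in FaDu cells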
Description: SANGER: Inhibition of human FADU cell growth in a cell viability assay.

G-402 = assay type: functional, cell-based, Homo sapiens; conditions: Homo sapiens, G-402
Description: SANGER: Inhibition of human G-402 cell growth in a cell viability assay.

GT3TKB = assay type: functional, cell-based, Homo sapiens; conditions: Homo sapiens, GT3TKB;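 also: growth inhibition of the cell line, read out with a cell viability assay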
Description: SANGER: Inhibition of human GT3TKB cell growth in a cell viability assay.

HCC1419 = assay type: functional, cell-based, Homo sapiens; conditions: Homo sapiens, HCC1419;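 also: growth inhibition of human HCC1419 cells, read out as cell viability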
Description: SANGER: Inhibition of human HCC1419 cell growth in a cell viability assay.

HCC2218 = assay type: functional, cell-based; conditions: Homo sapiens;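 also: cell viability assay read-out, with IC50 given as the concentration that inhibits growth of the cell line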
Description: SANGER: Inhibition of human HCC2218 cell growth in a cell viability assay.

HCT-116 = assay type: functional, cell-based, Homo sapiens; conditions: Homo sapiens, HCT-116
Description: SANGER: Inhibition of human HCT-116 cell growth in a cell viability assay.

HEC-1 = assay type: functional, cell-based, Homo sapiens; conditions: Homo sapiens, HEC-1;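 also: growth inhibition of the cell line, read out with a cell viability assay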
Description: SANGER: Inhibition of human HEC-1 cell growth in a cell viability assay.

HGC-27 = assay type: functional, cell-based, Homo sapiens; conditions: Homo sapiens, HGC-27;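 also: growth inhibition of human HGC-27 cells, read out in a cell viability assay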
Description: SANGER: Inhibition of human HGC-27 cell growth in a cell viability assay.

HO-1-N-1 = assay type: functional, cell-based, Homo sapiens; conditions: Homo sapiens, HO-1-N-1;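 also: growth inhibition of human HO-1-N-1 cells, read out with a cell viability assay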
Description: SANGER: Inhibition of human HO-1-N-1 cell growth in a cell viability assay.

HT-3 = assay type: functional, cell-based, Homo sapiens; conditions: Homo sapiens, HT-3;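 also: growth inhibition measured with a cell viability readout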
Description: SANGER: Inhibition of human HT-3 cell growth in a cell viability assay.

HuP-T3 = assay type: functional, cell-based, Homo sapiens; conditions: Homo sapiens, HuP-T3;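 also: HuP-T3 cell growth inhibition, read out with a cell viability assay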
Description: SANGER: Inhibition of human HuP-T3 cell growth in a cell viability assay.

KGN = assay type: functional, cell-based, Homo sapiens; conditions: Homo sapiens, KGN;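 also: growth inhibition of KGN cells, read out with a cell viability assay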
Description: SANGER: Inhibition of human KGN cell growth in a cell viability assay.

KM12 = assay type: functional, cell-based, Homo sapiens; conditions: Homo sapiens, KM12;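 also: KM12 cell growth inhibition, read out with a cell viability assay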
Description: SANGER: Inhibition of human KM12 cell growth in a cell viability assay.

LB831-BLC = assay type: functional, cell-based, Homo sapiens; conditions: Homo sapiens, LB831-BLC;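 also: growth inhibition of LB831-BLC cells, read out with a cell viability assay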
Description: SANGER: Inhibition of human LB831-BLC cell growth in a cell viability assay.

LNCaP-Clone-FGC = assay type: functional, cell-based, Homo sapiens; conditions: Homo sapiens, LNCaP-Clone-FGC
Description: SANGER: Inhibition of human LNCaP-Clone-FGC cell growth in a cell viability assay.

LS-123 = assay type: functional, cell-based, Homo sapiens; conditions: Homo sapiens, LS-123
Description: SANGER: Inhibition of human LS-123 cell growth in a cell viability assay.

MC116 = assay type: functional, cell-based; conditions: Homo sapiens;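 also: growth inhibition of MC116 cells, read out with a cell viability assay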
Description: SANGER: Inhibition of human MC116 cell growth in a cell viability assay.

MDA-MB-231 = assay type: functional, cell-based, Homo sapiens; conditions: Homo sapiens, MDA-MB-231
Description: SANGER: Inhibition of human MDA-MB-231 cell growth in a cell viability assay.

MFM-223 = assay type: functional, cell-based, Homo sapiens; conditions: Homo sapiens, MFM-223
Description: SANGER: Inhibition of human MFM-223 cell growth in a cell viability assay.

MOLT-4 = assay type: functional, cell-based; conditions: Homo sapiens;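 also: growth inhibition of MOLT-4 cells, determined with a cell viability readout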
Description: SANGER: Inhibition of human MOLT-4 cell growth in a cell viability assay.

Mo = assay type: functional, cell-based; conditions: Homo sapiens
Description: SANGER: Inhibition of human Mo-T cell growth in a cell viability assay.

NCI-H1693 = assay type: functional, cell-based, Homo sapiens; conditions: Homo sapiens, NCI-H1693;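 also: growth inhibition of the human cell line, read out with a cell viability assay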
Description: SANGER: Inhibition of human NCI-H1693 cell growth in a cell viability assay.

NCI-H2087 = assay type: functional, cell-based, Homo sapiens; conditions: Homo sapiens, NCI-H2087;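 also: growth inhibition determined with a cell viability readout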
Description: SANGER: Inhibition of human NCI-H2087 cell growth in a cell viability assay.

SNU-5 = assay type: functional, cell-based; conditions: Homo sapiens;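 also: cell viability readout used to measure growth inhibition in human NCI-SNU-5 cells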
Description: SANGER: Inhibition of human NCI-SNU-5 cell growth in a cell viability assay.

NTERA-2-cl-D1 = assay type: functional, cell-based, Homo sapiens; conditions: Homo sapiens, NTERA-2-cl-D1;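 also: inhibition of cell growth, measured with a cell viability assay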
Description: SANGER: Inhibition of human NTERA-S-cl-D1 cell growth in a cell viability assay.

OCI-AML2 = assay type: functional, cell-based; conditions: Homo sapiens;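 also: growth inhibition of OCI-AML2 cells, read out with a cell viability assay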
Description: SANGER: Inhibition of human OCI-AML2 cell growth in a cell viability assay.

RPMI-7951 = assay type: functional, cell-based, Homo sapiens; conditions: Homo sapiens, RPMI-7951
Description: SANGER: Inhibition of human RPMI-7951 cell growth in a cell viability assay.

SF-539 = assay type: functional, cell-based, Homo sapiens; conditions: Homo sapiens, SF-539;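 also: Read-out is a cell viability assay, with IC50 reflecting inhibition of cell growth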
Description: SANGER: Inhibition of human SF539 cell growth in a cell viability assay.

SK-MEL-1 = assay type: functional, cell-based; conditions: Homo sapiens;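 also: growth inhibition of human SK-MEL-1 cells, read out by a cell viability assay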
Description: SANGER: Inhibition of human SK-MEL-1 cell growth in a cell viability assay.

SK-MEL-2 = assay type: functional, cell-based, Homo sapiens; conditions: Homo sapiens, SK-MEL-2;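 also: growth inhibition of human SK-MEL-2 cells measured with a cell viability assay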
Description: SANGER: Inhibition of human SK-MEL-2 cell growth in a cell viability assay.

SK-MES-1 = assay type: functional, cell-based, Homo sapiens; conditions: Homo sapiens, SK-MES-1;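 also: growth inhibition of human SK-MES-1 cells, read out with a cell viability assay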
Description: SANGER: Inhibition of human SK-MES-1 cell growth in a cell viability assay.

SK-NEP-1 = assay type: functional, cell-based; conditions: Homo sapiens;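 also: growth inhibition of human SK-NEP-1 cells, read out by a cell viability assay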
Description: SANGER: Inhibition of human SK-NEP-1 cell growth in a cell viability assay.

T98G = assay type: functional, cell-based, Homo sapiens; conditions: Homo sapiens, T98G;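 also: growth inhibition of T98G cells, read out by a cell viability assay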
Description: SANGER: Inhibition of human T98G cell growth in a cell viability assay.

8305C = assay type: functional, cell-based, Homo sapiens; conditions: Homo sapiens, 8305C
Description: SANGER: Inhibition of human 8305C cell growth in a cell viability assay.

A204 = assay type: functional, cell-based, Homo sapiens; conditions: Homo sapiens, A204;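 also: growth inhibition of human A204 cells, read out with a cell viability assay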
Description: SANGER: Inhibition of human A204 cell growth in a cell viability assay.

A673 = assay type: functional, cell-based, Homo sapiens; conditions: Homo sapiens, A673;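 also: growth inhibition of human A673 cells, read out through a cell viability assay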
Description: SANGER: Inhibition of human A673 cell growth in a cell viability assay.

ACHN = assay type: functional, cell-based, Homo sapiens; conditions: Homo sapiens, ACHN;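 also: cell viability read-out used to gauge how strongly growth of human ACHN cells is suppressed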
Description: SANGER: Inhibition of human ACHN cell growth in a cell viability assay.

ASPC1 = assay type: functional, cell-based, Homo sapiens; conditions: Homo sapiens, ASPC1;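 also: growth inhibition of AsPC-1 cells, read out with a cell viability assay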
Description: SANGER: Inhibition of human AsPC-1 cell growth in a cell viability assay.

BFTC-909 = assay type: functional, cell-based, Homo sapiens; conditions: Homo sapiens, BFTC-909
Description: SANGER: Inhibition of human BFTC-909 cell growth in a cell viability assay.

BT-20 = assay type: functional, cell-based, Homo sapiens; conditions: Homo sapiens, BT-20;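 also: cell viability assay measuring suppression of growth in human BT-20 cells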
Description: SANGER: Inhibition of human BT-20 cell growth in a cell viability assay.

C2BBe1 = assay type: functional, cell-based, Homo sapiens; conditions: Homo sapiens, C2BBe1;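 also: growth inhibition of C2BBe1 cells, read out through a viability assay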
Description: SANGER: Inhibition of human C2BBe1 cell growth in a cell viability assay.

CAL-54 = assay type: functional, cell-based, Homo sapiens; conditions: Homo sapiens, CAL-54;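 also: growth inhibition of CAL-54 cells, read out by a viability measurement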
Description: SANGER: Inhibition of human CAL-54 cell growth in a cell viability assay.

VM-CUB-1 = assay type: functional, cell-based; conditions: Homo sapiens;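 also: cell viability assay measuring growth inhibition of the human VM-CUB-1 cell line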
Description: SANGER: Inhibition of human VM-CUB-1 cell growth in a cell viability assay.

YAPC = assay type: functional, cell-based, Homo sapiens; conditions: Homo sapiens, YAPC;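 also: growth inhibition of YAPC cells, measured with a cell viability assay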
Description: SANGER: Inhibition of human YAPC cell growth in a cell viability assay.

no-10 = assay type: functional, cell-based, Homo sapiens; conditions: Homo sapiens;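 also: growth inhibition of no-10 cells, read out with a cell viability assay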
Description: SANGER: Inhibition of human no-10 cell growth in a cell viability assay.

CAS-1 = assay type: functional, cell-based, Homo sapiens; conditions: Homo sapiens, CAS-1;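 also: growth inhibition of CAS-1 cells, measured with a cell viability assay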
Description: SANGER: Inhibition of human CAS-1 cell growth in a cell viability assay.

O=C(c1cc(Cc2n[nH]c(=O)c3ccccc23)ccc1F)N1CCN(C(=O)C2CC2)CC1 [OLAPARIB]
IC50 (CW-2): > 5000 nM
IC50 (D-336MG): > 5000 nM
IC50 (DOHH-2): > 5000 nM
IC50 (DOK): > 5000 nM
IC50 (EM-2): > 5000 nM
IC50 (EW-3): 2280 nM
IC50 (FaDu): > 5000 nM
IC50 (G-402): > 5000 nM
IC50 (GT3TKB): > 5000 nM
IC50 (HCC1419): > 5000 nM
IC50 (HCC2218): 3730 nM
IC50 (HCT-116): > 5000 nM
IC50 (HEC-1): > 5000 nM
IC50 (HGC-27): > 5000 nM
IC50 (HO-1-N-1): > 5000 nM
IC50 (HT-3): > 5000 nM
IC50 (HuP-T3): > 5000 nM
IC50 (KGN): > 5000 nM
IC50 (KM12): > 5000 nM
IC50 (LB831-BLC): > 5000 nM
IC50 (LNCaP-Clone-FGC): > 5000 nM
IC50 (LS-123): > 5000 nM
IC50 (MC116): > 5000 nM
IC50 (MDA-MB-231): > 5000 nM
IC50 (MFM-223): > 5000 nM
IC50 (MOLT-4): > 5000 nM
IC50 (Mo): > 5000 nM
IC50 (NCI-H1693): > 5000 nM
IC50 (NCI-H2087): > 5000 nM
IC50 (SNU-5): > 5000 nM
IC50 (NTERA-2-cl-D1): 1330 nM
IC50 (OCI-AML2): > 5000 nM
IC50 (RPMI-7951): > 5000 nM
IC50 (SF-539): > 5000 nM
IC50 (SK-MEL-1): > 5000 nM
IC50 (SK-MEL-2): > 5000 nM
IC50 (SK-MES-1): > 5000 nM
IC50 (SK-NEP-1): > 5000 nM
IC50 (T98G): > 5000 nM
IC50 (8305C): > 5000 nM
IC50 (A204): > 5000 nM
IC50 (A673): > 5000 nM
IC50 (ACHN): > 5000 nM
IC50 (ASPC1): > 5000 nM
IC50 (BFTC-909): > 5000 nM
IC50 (BT-20): > 5000 nM
IC50 (C2BBe1): > 5000 nM
IC50 (CAL-54): > 5000 nM
IC50 (VM-CUB-1): > 5000 nM
IC50 (YAPC): > 5000 nM
IC50 (no-10): > 5000 nM
IC50 (CAS-1): > 5000 nM

CN(Cc1cnc2nc(N)nc(N)c2n1)c1ccc(C(=O)N[C@@H](CCC(=O)O)C(=O)O)cc1 [METHOTREXATE]
IC50 (CW-2): > 200 nM
IC50 (D-336MG): > 200 nM
IC50 (DOHH-2): 21.6 nM
IC50 (DOK): > 200 nM
IC50 (EM-2): 57.1 nM
IC50 (FaDu): > 200 nM
IC50 (G-402): > 200 nM
IC50 (GT3TKB): > 200 nM
IC50 (HCC1419): > 200 nM
IC50 (HCT-116): > 200 nM
IC50 (HEC-1): > 200 nM
IC50 (HGC-27): > 200 nM
IC50 (HO-1-N-1): > 200 nM
IC50 (HT-3): 69.4 nM
IC50 (HuP-T3): > 200 nM
IC50 (KGN): 150 nM
IC50 (KM12): 164 nM
IC50 (LB831-BLC): > 200 nM
IC50 (LNCaP-Clone-FGC): > 200 nM
IC50 (LS-123): > 200 nM
IC50 (MC116): 60.6 nM
IC50 (MDA-MB-231): > 200 nM
IC50 (MFM-223): > 200 nM
IC50 (MOLT-4): 21.2 nM
IC50 (Mo): > 200 nM
IC50 (NCI-H1693): > 200 nM
IC50 (NCI-H2087): > 200 nM
IC50 (SNU-5): > 200 nM
IC50 (NTERA-2-cl-D1): > 200 nM
IC50 (OCI-AML2): > 200 nM
IC50 (RPMI-7951): > 200 nM
IC50 (SF-539): > 200 nM
IC50 (SK-MEL-1): > 200 nM
IC50 (SK-MEL-2): > 200 nM
IC50 (SK-MES-1): > 200 nM
IC50 (SK-NEP-1): 4.82 nM
IC50 (T98G): > 200 nM
IC50 (8305C): 196 nM
IC50 (A204): > 200 nM
IC50 (A673): > 200 nM
IC50 (ACHN): 85.3 nM
IC50 (ASPC1): > 200 nM
IC50 (BFTC-909): > 200 nM
IC50 (BT-20): > 200 nM
IC50 (C2BBe1): > 200 nM
IC50 (CAL-54): > 200 nM
IC50 (VM-CUB-1): > 200 nM
IC50 (YAPC): > 200 nM
IC50 (no-10): > 200 nM
IC50 (CAS-1): > 200 nM
